Results published in ChEMBL document CHEMBL2346632, “A one-pot domino synthesis and discovery of highly functionalized dihydrobenzo[b]thiophenes as AChE inhibitors” (Bioorg Med Chem Lett, 2013).

Biological target: Acetylcholinesterase (Electrophorus electricus, UniProt O42275)
Test: Inhibition of electric eel AChE after 30 mins by Ellman's method

Sequence of Acetylcholinesterase (O42275 whole entry): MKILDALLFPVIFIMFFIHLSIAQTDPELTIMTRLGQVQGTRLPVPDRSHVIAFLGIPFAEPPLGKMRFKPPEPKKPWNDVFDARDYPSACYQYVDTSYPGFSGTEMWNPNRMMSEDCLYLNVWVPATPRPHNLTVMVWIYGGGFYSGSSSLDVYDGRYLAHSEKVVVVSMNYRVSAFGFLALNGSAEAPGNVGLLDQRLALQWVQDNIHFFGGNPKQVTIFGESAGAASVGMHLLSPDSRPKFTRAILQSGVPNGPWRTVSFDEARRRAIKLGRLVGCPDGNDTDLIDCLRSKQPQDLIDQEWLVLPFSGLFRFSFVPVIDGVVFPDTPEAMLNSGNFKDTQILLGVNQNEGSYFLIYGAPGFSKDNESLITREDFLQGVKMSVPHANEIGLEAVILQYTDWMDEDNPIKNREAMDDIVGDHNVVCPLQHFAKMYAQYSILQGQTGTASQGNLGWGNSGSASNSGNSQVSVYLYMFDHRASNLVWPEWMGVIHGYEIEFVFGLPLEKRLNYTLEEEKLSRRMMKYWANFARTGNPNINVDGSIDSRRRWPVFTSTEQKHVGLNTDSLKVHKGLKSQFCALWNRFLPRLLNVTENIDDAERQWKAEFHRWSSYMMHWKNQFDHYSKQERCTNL

| SMILES | IC50 [µM] |
| --- | --- |
| COc1ccc(-c2c(C#N)c(N)c(C#N)c3c2SC(c2ccccc2)C3)cc1 (racemic) | 5.11 |
| N#Cc1c(N)c(C#N)c(-c2ccc(Cl)cc2)c2c1CC(c1ccccc1)S2 (racemic) | 29.2 |
| N#Cc1c(N)c(C#N)c(-c2ccc(F)cc2)c2c1CC(c1ccccc1)S2 (racemic) | 32.3 |
| N#Cc1c(N)c(C#N)c(-c2ccc(Br)cc2)c2c1CC(c1ccccc1)S2 (racemic) | 37.9 |
| CC(C)c1ccc(-c2c(C#N)c(N)c(C#N)c3c2SC(c2ccccc2)C3)cc1 (racemic) | 37.1 |
| Cc1ccc(-c2c(C#N)c(N)c(C#N)c3c2SC(c2ccc(C)cc2)C3)cc1 (racemic) | 4.24 |
| COc1ccc(-c2c(C#N)c(N)c(C#N)c3c2SC(c2ccc(C)cc2)C3)cc1 (racemic) | 11.3 |
| Cc1ccc(C2Cc3c(C#N)c(N)c(C#N)c(-c4ccc(Cl)cc4)c3S2)cc1 (racemic) | 13.6 |
| Cc1ccc(C2Cc3c(C#N)c(N)c(C#N)c(-c4ccc(F)cc4)c3S2)cc1 (racemic) | 18.1 |
| Cc1ccc(C2Cc3c(C#N)c(N)c(C#N)c(-c4ccc(Br)cc4)c3S2)cc1 (racemic) | 24.2 |
| CC(C)c1ccc(C2Cc3c(C#N)c(N)c(C#N)c(-c4ccc(Cl)cc4)c3S2)cc1 (racemic) | 48.3 |
| CC(C)c1ccc(C2Cc3c(C#N)c(N)c(C#N)c(-c4ccc(F)cc4)c3S2)cc1 (racemic) | 44.2 |
| Cc1ccc(-c2c(C#N)c(N)c(C#N)c3c2SC(c2ccc(Cl)cc2)C3)cc1 (racemic) | 17.3 |
| COc1ccc(-c2c(C#N)c(N)c(C#N)c3c2SC(c2ccc(Cl)cc2)C3)cc1 (racemic) | 26.6 |
| N#Cc1c(N)c(C#N)c(-c2ccc(Cl)cc2)c2c1CC(c1ccc(Cl)cc1)S2 (racemic) | 34.1 |
| N#Cc1c(N)c(C#N)c(-c2ccc(F)cc2)c2c1CC(c1ccc(Cl)cc1)S2 (racemic) | 39.2 |
| N#Cc1c(N)c(C#N)c(-c2ccc(Br)cc2)c2c1CC(c1ccc(Cl)cc1)S2 (racemic) | 41.3 |
| COc1ccc(C2Cc3c(C#N)c(N)c(C#N)c(-c4ccc(C)cc4)c3S2)cc1 (racemic) | 11.6 |
| COc1ccc(-c2c(C#N)c(N)c(C#N)c3c2SC(c2ccc(OC)cc2)C3)cc1 (racemic) | 4.16 |
| Cc1ccc(-c2c(C#N)c(N)c(C#N)c3c2SC(c2ccccc2)C3)cc1 (racemic) | 9.62 |
